# According to US11931424B2, “Combination MCL-1 inhibitors with anti-body drug conjugates” (Gilead Sciences, Inc., priority 2021, dated 2024):
# System: panel of breast cancer cell lines
# Assay: Compound A with targeted agents and chemotherapies, 72-hour in vitro proliferation assays
# Format: cell-based
# Conditions: 72-hour proliferation
# [1] = AU565 cell line, compound A × partner
# [2] = BT-20 cell line, compound A × partner
# [3] = CAL-51 cell line, compound A × partner
# [4] = CAL-85-1 cell line, compound A × partner
# [5] = CAL-120 cell line, compound A × partner
# [6] = CAL-148 cell line, compound A × partner
# [7] = CAMA-1 cell line, compound A × partner
# [8] = DU-4475 cell line, compound A × partner
# [9] = EVSA-T cell line, compound A × partner
structure (smiles),measurement,setting,value
CN(C)C(=O)c1cc2cnc(Nc3ccc(N4CCNCC4)cn3)nc2n1C1CCCC1 [LEE011],Best CI,[1],1.01
same,Bliss Volume,[1],−1.41
same,HSA volume,[1],−6.50
same,Loewe Volume,[1],−4.57
same,Synergy Score,[1],1.58
same,Best CI,[2],0.78
same,Bliss Volume,[2],−2.26
same,HSA volume,[2],−1.79
same,Loewe Volume,[2],−2.17
same,Synergy Score,[2],2.30
same,Best CI,[3],0.77
same,Bliss Volume,[3],−1.68
same,HSA volume,[3],−1.56
same,Loewe Volume,[3],−1.27
same,Synergy Score,[3],0.34
same,Best CI,[4],0.64
same,Bliss Volume,[4],−5.58
same,HSA volume,[4],−9.15
same,Loewe Volume,[4],−7.95
same,Synergy Score,[4],0.23
same,Best CI,[5],0.62
same,Bliss Volume,[5],−1.14
same,HSA volume,[5],−5.68
same,Loewe Volume,[5],−5.28
same,Synergy Score,[5],0.15
same,Best CI,[6],0.86
same,Bliss Volume,[6],−4.27
same,HSA volume,[6],−5.99
same,Loewe Volume,[6],−4.10
same,Synergy Score,[6],0.81
same,Best CI,[7],0.73
same,Bliss Volume,[7],−3.85
same,Loewe Volume,[7],−6.51
same,Synergy Score,[7],1.09
same,Best CI,[8],0.47
same,Bliss Volume,[8],1.64
same,HSA volume,[8],0.20
same,Loewe Volume,[8],1.04
same,Synergy Score,[8],0.98
same,Best CI,[9],0.63
same,Bliss Volume,[9],−0.43
same,HSA volume,[9],−2.18
same,Synergy Score,[9],0.34
same,Best CI,"HCC38, compound A × partner",0.44
same,Bliss Volume,"HCC38, compound A × partner",−4.85
same,HSA volume,"HCC38, compound A × partner",−8.61
same,Loewe Volume,"HCC38, compound A × partner",−9.77
same,Synergy Score,"HCC38, compound A × partner",1.12
same,Best CI,"HCC70, compound A × partner",0.93
same,Bliss Volume,"HCC70, compound A × partner",−0.15
same,HSA volume,"HCC70, compound A × partner",0.16
same,Loewe Volume,"HCC70, compound A × partner",0.49
same,Synergy Score,"HCC70, compound A × partner",6.12
same,Bliss Volume,"HCC1143, compound A × partner",−3.25
same,HSA volume,"HCC1143, compound A × partner",−7.75
same,Loewe Volume,"HCC1143, compound A × partner",−9.95
same,Synergy Score,"HCC1143, compound A × partner",1.30
same,Best CI,"HCC1569, compound A × partner",0.47
same,Bliss Volume,"HCC1569, compound A × partner",5.70
same,HSA volume,"HCC1569, compound A × partner",1.89
same,Loewe Volume,"HCC1569, compound A × partner",5.08
same,Synergy Score,"HCC1569, compound A × partner",3.87
same,Best CI,"HCC1806, compound A × partner",0.56
same,Bliss Volume,"HCC1806, compound A × partner",−3.98
same,HSA volume,"HCC1806, compound A × partner",−8.72
same,Loewe Volume,"HCC1806, compound A × partner",−4.05
same,Synergy Score,"HCC1806, compound A × partner",0.65
same,Best CI,"HCC1937, compound A × partner",0.74
same,Bliss Volume,"HCC1937, compound A × partner",2.31
same,HSA volume,"HCC1937, compound A × partner",−2.66
same,Loewe Volume,"HCC1937, compound A × partner",1.04
same,Synergy Score,"HCC1937, compound A × partner",2.13
same,Best CI,"HCC1954, compound A × partner",0.72
same,Bliss Volume,"HCC1954, compound A × partner",−0.75
same,Loewe Volume,"HCC1954, compound A × partner",−1.17
same,Synergy Score,"HCC1954, compound A × partner",4.48
same,Best CI,"HCC2218, compound A × partner",0.73
same,Bliss Volume,"HCC2218, compound A × partner",−5.40
same,HSA volume,"HCC2218, compound A × partner",−4.99
same,Loewe Volume,"HCC2218, compound A × partner",−5.90
same,Synergy Score,"HCC2218, compound A × partner",1.69
same,Best CI,"HDQ-P1, compound A × partner",0.04
same,Bliss Volume,"HDQ-P1, compound A × partner",−2.80
same,HSA volume,"HDQ-P1, compound A × partner",−6.22
same,Loewe Volume,"HDQ-P1, compound A × partner",−9.02
same,Synergy Score,"HDQ-P1, compound A × partner",0.15
same,Best CI,"HMC-1-8, compound A × partner",0.81
same,Bliss Volume,"HMC-1-8, compound A × partner",9.82
same,HSA volume,"HMC-1-8, compound A × partner",5.13
same,Loewe Volume,"HMC-1-8, compound A × partner",5.78
same,Synergy Score,"HMC-1-8, compound A × partner",9.01
same,Best CI,"JIMT-1, compound A × partner",0.00
same,Bliss Volume,"JIMT-1, compound A × partner",0.29
same,HSA volume,"JIMT-1, compound A × partner",−2.46
same,Loewe Volume,"JIMT-1, compound A × partner",−4.06
same,Synergy Score,"JIMT-1, compound A × partner",0.28
same,Best CI,"KPL-1, compound A × partner",0.65
same,Bliss Volume,"KPL-1, compound A × partner",0.36
same,HSA volume,"KPL-1, compound A × partner",−0.31
same,Synergy Score,"KPL-1, compound A × partner",1.43
CS(=O)(=O)CCNCc1ccc(-c2ccc3ncnc(Nc4ccc(OCc5cccc(F)c5)c(Cl)c4)c3c2)o1 [Lapatinib Ditosylate],Best CI,[1],0.44
same,Best CI,[2],0.18
same,Best CI,"BT-474 cell line, compound A × partner",0.02
same,Best CI,"BT-549 cell line, compound A × partner",0.45
same,Best CI,[3],1.14
same,Best CI,[4],0.58
same,Best CI,[5],1.36
same,Best CI,[6],0.38
same,Best CI,[7],0.90
same,Best CI,[8],0.65
same,Best CI,[9],0.77
same,Best CI,"HCC38, compound A × partner",0.87
same,Best CI,"HCC70, compound A × partner",0.35
same,Best CI,"HCC1143, compound A × partner",0.54
same,Best CI,"HCC1569, compound A × partner",0.53
same,Best CI,"HCC1806, compound A × partner",0.74
same,Best CI,"HCC1937, compound A × partner",1.22
same,Best CI,"HCC1954, compound A × partner",0.07
same,Best CI,"HCC2218, compound A × partner",0.02
same,Best CI,"HDQ-P1, compound A × partner",0.87
same,Best CI,"HMC-1-8, compound A × partner",0.50
same,Best CI,"JIMT-1, compound A × partner",0.29
same,Best CI,"KPL-1, compound A × partner",0.65
same,Best CI,"MCF7 cells, Compound A × partner agent",0.34
same,Best CI,"MDA-MB-175-VII cells, Compound A × partner agent",0.32
same,Best CI,"MDA-MB-231 cells, Compound A × partner agent",0.77
same,Best CI,"MDA-MB-361 cells, Compound A × partner agent",0.87
same,Best CI,"MDA-MB-436 cells, Compound A × partner agent",0.51
same,Best CI,"MDA-MB-453 cells, Compound A × partner agent",0.45
same,Best CI,"MDA-MB-468 cells, Compound A × partner agent",0.36
same,Best CI,"SK-BR-3 cells, Compound A × partner agent",0.15
same,Best CI,"SUM159PT cells, combination of compound A with the named agent",1.37
same,Best CI,"T47D cells, combination of compound A with the named agent",0.41
same,Best CI,"ZR-75-1 cells, combination of compound A with the named agent",0.73
same,Best CI,"ZR-75-30 cells, combination of compound A with the named agent",0.31
